In US6773893B1, “Human ABC1 promoter and assays based thereon” (The Trustees of Columbia University in the City of New York, priority 2000, dated 2004):
Entries after “also recorded” stand apart in the source; their conditions may differ.

Key:
[1] = test system: LXR/hRXRα binding site of the CETP promoter; assay: Luciferase reporter with 3 copies of the LXR responsive element of the CETP promoter in 293 cells; type: cell-based, human; settings: for increase in luciferase activity: absence of transfected receptors
Procedure: (§1) Transfections were performed in 24-wells plates with Lipofectamine reagent (transactivation experiments in CV-1 and 293 cells, FIG. 6-7) or Lipofectamine-Plus reagent (Basal activation experiments in RAW 264.7, FIG. 5) according to the manufacturer's instructions (Life Technologies, Grand Island, N.Y., USA). For basal activation experiments a total of […] of reporter DNA and 0.05 mg of PRL-CMV(Renilla) (Promega Corp., Madison, Wis., USA) per well were used. For transactivation studies we used, per well, 0.025 mg of PRL-CMV, 0.2 mg of reporter DNA and 0.1 mg of each receptors (CMX-hRXRα, CMX-hLXRα, CMV-mLXRβ) or 0.2 mg of pcDNA3. The transfected cells were cultured in lipoprotein deficient serum (LPDS) medium in the presence of […] of 22(R)-hydroxycholesterol (22(R)-HCh), 25-hydroxycholesterol (25-HCh) or 7-ketocholesterol (7-KCh), […] 9-cis retinoic acid (9CRA) (Sigma Chemical Co., St Louis, Mo., USA) or ethanol alone for 24 hours. The luciferase activities were measured using Promega Dual Luciferase assay system. Reporter plasmid used to analyse the activity of hABC1 promoter was constructed by subcloning a 1029 bp PCR fragment of hABC1 promoter (−928 bp +101 bp) into pGL3-Luc basic vector (Promega). […] A shorter promoter (−469 bp to +101 bp) was generated by digestion of this plasmid with Sac1. Where shown, error bars represent the standard deviation.

[2] = test system: hABC1 mRNA in THP-1 macrophages; assay: Northern blot of ABC1 mRNA in THP-1 macrophages; type: cell-based, human; parameters: dose or concentration left out as unconfirmed; settings: 24 h, vs ethanol
Procedure: (§2) The cell lines were purchased from ATCC (Rockville, Md., USA). The murine RAW 264.7, African green monkey CV-1, and human 293 or HepG2 cell lines were maintained in Dulbecco's modified Eagle's medium (DMEM) with 10% Fetal Bovine Serum (FBS), 100 U/ml penicillin and […] streptomycin. THP-1 cells were maintained in RPMI-1640 containing L-glutamine, 10% heat inactivated FBS, 100 U/ml penicillin and […] streptomycin supplemented with 0.5 mM B-mercaptoethanol. Confluent cells were differentiated with 0.2 mM phorbol 12-myristate 13-acetate (Sigma Chemical Co., St Louis, Mo., USA) in ethanol during 72 hours. Thioglycollate-elicited peritoneal macrophages were isolated from C57 Bl/6 mice as described (31).

[3] = test system: hABC1 promoter; assay: hABC1 promoter-luciferase reporter in RAW 264.7 cells; type: cell-based, mouse; settings: for hABC1 promoter activity compared to basal conditions: 10 μM, Firefly/Renilla luciferase ratio vs ethanol; for hABC1 promoter induction (summary statement): RAW macrophages, upstream promoter (-469 bp)
Procedure: In FIG. 5A a fragment of the hABC1 promoter ([…] to +101 bp) was linked to Firefly luciferase reporter gene. The resulting plasmid was cotransfected with a control reporter plasmid (Renilla luciferase) in the mouse macrophage-like RAW 264.7 cells. Four independent transfections experiments (each in triplicates) were performed. The results are expressed as a ratio between the Firefly and Renilla luciferase activities. Cells were treated with vehicle or 22(R)-Hch (10 μM), 9CRA (10 μM) and 22(R)-Hch (10 μM)+9CRA (10 μM), 24 hours in FBS medium complemented with 10% LPDS. […] Two independent experiments in triplicate were performed according to the protocol described in (a), using a shorter promoter: […] +101 pb. […] The same experiments as (a) were performed using 22(R)-Hch (10 μM), 25-Hch (10 μM), 7K-Ch (10 μM) and 9CRA (10 μM). Three to four independent experiments in duplicate or triplicate were performed. Mann Whitney tests were mean to analyze the difference between “Ethanol” and “Treatment”. In these Figures, ***=P<0.001,*=P<0.05.
as §2, §1

[4] = test system: hABC1 promoter; assay: hABC1 promoter (-469 bp +101 bp) luciferase reporter in 293 cells with or without LXR/RXR; type: cell-based, human; settings: for upregulation of the hABC1 promoter: 293 cells without transfected LXR/hRXR, 10 μM, 24 h
Procedure: as §2, §1

[5] = molecular target: SF1 (Homo sapiens, UniProt Q13285); settings: from cited references; cited from earlier work
[6] = test system: LXR; settings: from cited references; cited from earlier work
[7] = test system: hABC1 promoter; assay: Transactivation of the hABC1 promoter by LXR/RXR in CV-1 cells; type: cell-based, human
Procedure: as §1, with “The cell lines were purchased from ATCC (Rockville, Md., USA). The murine RAW 264.7, African green monkey CV-1, and human 293 or HepG2 cell lines were maintained in Dulbecco's modified Eagle's medium (DMEM) with 10% Fetal Bovine Serum (FBS), 100 U/ml penicillin and […] streptomycin. THP-1 cells were maintained in RPMI-1640 containing L-glutamine, 10% heat inactivated FBS, 100 U/ml penicillin and […] streptomycin supplemented with 0.5 mM B-mercaptoethanol. Confluent cells were differentiated with 0.2 mM phorbol 12-myristate 13-acetate (Sigma Chemical Co., St Louis, Mo., USA) in ethanol during 72 hours. Thioglycollate-elicited peritoneal macrophages were isolated from C57 Bl/6 mice as described (31). Transfections” for “Transfections”

Sequence of SF1 (Q13285 whole entry): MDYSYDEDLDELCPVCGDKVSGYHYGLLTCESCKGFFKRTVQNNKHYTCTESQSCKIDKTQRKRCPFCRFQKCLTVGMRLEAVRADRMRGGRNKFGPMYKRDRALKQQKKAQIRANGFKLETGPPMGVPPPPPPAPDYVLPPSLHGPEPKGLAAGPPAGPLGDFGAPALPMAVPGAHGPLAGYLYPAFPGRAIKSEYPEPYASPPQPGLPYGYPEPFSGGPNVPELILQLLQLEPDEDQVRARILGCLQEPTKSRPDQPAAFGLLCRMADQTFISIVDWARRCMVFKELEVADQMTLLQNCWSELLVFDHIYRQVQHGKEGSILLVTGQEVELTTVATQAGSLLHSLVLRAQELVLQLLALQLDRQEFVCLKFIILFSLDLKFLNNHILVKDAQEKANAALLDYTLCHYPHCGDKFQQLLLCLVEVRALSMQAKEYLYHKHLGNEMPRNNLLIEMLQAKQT

Row | Compound | increase in luciferase activity [1] [fold] | ABC1 mRNA induction [2] [fold] | hABC1 promoter activity compared to basal conditions ([3]; RAW 264.7 cells, 24 h) | hABC1 promoter induction (summary statement) [3] [fold] | upregulation of the hABC1 promoter [4] [fold] | activator of SF1 [5] | activator of LXR / LXR-RXR [6] | also measured
1 | 9-cis retinoic acid [9CRA] | 24 | 2 |  |  |  |  |  | 
2 | CC(C)CCC[C@@H](C)[C@H]1CC[C@H]2[C@@H]3C(=O)C=C4C[C@@H](O)CC[C@]4(C)[C@H]3CC[C@]12C [7-KCh, 7-ketocholesterol] |  |  | No significant effect; also recorded: poor activator |  |  |  |  | hABC1 promoter activity compared to 9CRA alone ([3]; RAW 264.7 cells, sterol in combination with 9CRA (10 μM each), 24 h): 2 fold
3 | CC1=C(/C=C/C(C)=C\C=C\C(C)=C\C(=O)O)C(C)(C)CCC1 [9CRA, 9-cis retinoic acid] |  |  | 8 fold | 8 | 3.5 |  |  | activity compared to non-transfected cells ([1]; LXR transfected): no further increase in activity; effect on hABC1 promoter activity with transfected receptors ([4]; 293 cells transfected with LXRα/hRXRα): no additional effect
4 | CC(C)CC[C@@H](O)[C@@H](C)[C@H]1CC[C@H]2[C@@H]3CC=C4C[C@@H](O)CC[C@]4(C)[C@H]3CC[C@]12C [22(R)-HCh, 22(R)-hydroxycholesterol] | 14 | 2 | 7 fold | 7 | 4.5 | poor activator | good activator | transactivation of the hABC1 promoter compared to the control with no receptor ([7]; CV-1 cells cotransfected with hRXRα/LXRα): 6 fold; transactivation of the hABC1 promoter compared to the control with no receptor ([7]; CV-1 cells cotransfected with hRXRα/LXRβ): 8 fold; activation of the hABC1 promoter ([7]; CV-1 cells without transfected receptors): 4 fold
5 | C[C@H](CCCC(C)(C)O)[C@H]1CC[C@H]2[C@@H]3CC=C4C[C@@H](O)CC[C@]4(C)[C@H]3CC[C@]12C [25-HCh, 25-hydroxycholesterol] |  |  | 1.5 fold |  |  | good activator | poor activator | 
6 | C[C@@H](CO)CCC[C@@H](C)[C@H]1CC[C@H]2[C@@H]3CC=C4C[C@@H](O)CC[C@]4(C)[C@H]3CC[C@]12C [27-HCh] |  |  |  |  |  |  | relatively poor activator | 
